# Experiments:
# shocked rats [1] = assay: Example 3: PEG-20 k and delayed or nitric oxide modified HBOC in rodent lethal hemorrhagic shock; assay type: in vivo, rat; conditions: Example 3, present tense
# Experimental: Rats are bled to 35 mmHg and held there until lactate reaches 9-10 mM, at which time, LVR solutions are given to resuscitate them. Thirty minutes after resuscitation, another 10% blood volume is removed and the plasma component is immediately separated and given back. A loop of distal ileum is exposed and a 1 cm enterotomy is made along the anti-mesenteric border to access the mucosal surface for hourly recordings of capillary blood flow by Orthogonal Polarization Spectral Imaging (OPSI) and for biopsies of bowel mucosa at various times before. The biopsies are used for histological analysis and for nitric oxide metabolism studies ex-vivo in a tissue culture system.
# The albumin solution is a control for both the protein and oncotic effects of the HBOC per se and for the delayed volume administration at 2 and 4 hours after the initial PEG-20 k resuscitation. The total volume infusions for these studies is maintained at 6.8 ml/kg to remain in the low volume range (10% estimated blood volume). All surgical preparations are sterile so any animals surviving after 5 hours from resuscitation can be recovered the next day. N=10 rats per group. […]
# In both Part 1 and Part 2, the primary measured outcomes include the rate of oxygen debt repayment on the first operative day and the re-accumulation of new oxygen debt the following days in rats that survive the initial 5-hour intra-operative observation period. […] Other secondary outcomes measured in each experiment include MAP, blood labs, intestinal microcirculation measured with orthogonal polarization spectral imaging (OPSI) through a small enterotomy in the distal ileum, plasma Th1 cytokines, terminal bowel histology analysis, and subject survival time. Finally, local tissue production of nitric oxide, nitrosothiols, and nitric oxide metabolites is assessed from serial bowel mucosa biopsies using incubations of tissue in a Dubanoff metabolic incubator and a Sievers-Style chemiluminescence NO analyzer.
# [2] = test system: nitric oxide synthase (NOS); conditions: cited from earlier work; for blockade of the L-Arginine effect in crystalloid resuscitation: competitive NOS inhibitors
# anesthetized rats [3] = conditions: 300 mg/kg L-Arginine with 6.8 ml/kg HBOC-201 IV, listed as L-Arg
# Source text: This hypertension is believed due to the local scavenging of nitric oxide in the vessel wall. As the normal vasodilator tone produced by basal nitric oxide is removed by the HBOC hemoglobin, the vasoconstrictor tone now prevails and the blood pressure rises secondary to vasoconstriction of the resistance vessels.
# Studies were designed to test how nitric oxide substrate loading before HBOC prevents or attenuates the NO scavenging effects of the HBOC on physiological, biochemical, and survival outcomes.
# anesthetized rats [4] = conditions: literature reference (22); cited from earlier work
# shocked rats [5] = assay: Example 4: fibrinogen add back after PEG-20 k resuscitation, controlled and uncontrolled hemorrhage in rats; assay type: in vivo, rat; conditions: fibrinogen after PEG-20 k IV solution, controlled or uncontrolled hemorrhagic shock
# Experimental: Changes in coagulation and platelet function is measured in the controlled lethal shock model in adult anesthetized rats in groups that receive PEG-20 k IV solution alone and those that receive PEG-20 k IV solution and supplemental human fibrinogen (200 mg/kg, IV, in 300 μl LR). The control group also receives 300 ul LR without RiaSTAP®. Samples of whole rat blood (1.0-ml) are taken at baseline and at various times after resuscitation for thromboelastography (TEG) analysis of coagulation and platelet function. Other assays are done to measure fibrinogen levels, intrinsic and extrinsic coagulation pathway coagulation, and platelet mapping studies are conducted to answer some mechanistic questions about platelet function defects. Samples are collected out to 4 hours, which is the time when coagulation and platelet function begins to return to baseline levels after PEG-20 k resuscitation. Each group uses 10 adult Sprague-Dawley rats.
# Coagulation and platelet function outcomes are tested by using a clinically relevant model of mixed polytrauma hemorrhagic shock that involves severe bleeding from both controllable and uncontrollable sources. Our lab has developed a rodent model of severe hemorrhagic shock where tail bleeding (controlled source) is combined with blood loss from an abdominal penetrating injury to the spleen (splenic laceration). […]
# [6] = test system: platelet IIb/IIIa receptor; conditions: in vivo
# Source text: The hypocoagulable state and functional hypofibrinogenemia that exists immediately after severe blood loss and PEG-20 k resuscitation is mitigated by the concurrent addition of reconstituted lyophilized human fibrinogen (RiaSTAP®). The effects of severe blood loss after hemorrhage leads to direct depletion of clotting factors including fibrinogen. Furthermore, resuscitation with PEG-20 k IV solution causes rapid and long acting volume expansion by the osmotic movement of isotonic fluid from the intracellular and interstitial spaces back into the intravascular space, which further dilutes fibrinogen concentrations. […] Together, these forces tend to dilute out plasma fibrinogen concentrations that likely contribute to both the transient hypocoagulable state and the functional hypofibrinogenemia seen after PEG-20 k resuscitation in severe blood loss. Therefore, it makes sense that a simple add back of fibrinogen to the system after PEG-20 k IV solution resuscitation will correct the defect and improve coagulation and platelet function. […]
# Changes in coagulation and platelet function is measured in the controlled lethal shock model in adult anesthetized rats in groups that receive PEG-20 k IV solution alone and those that receive PEG-20 k IV solution and supplemental human fibrinogen (200 mg/kg, IV, in 300 μl LR). […]
compound,measurement,setting,value
N=C(N)NCCC[C@@H](N)C(=O)O (racemic) [D-Arginine],blockade of the L-Arginine effect with HBOC,shocked rats [1],this effect is blocked
same,blockade of the L-Arginine effect in crystalloid resuscitation,[2],blocked
N=C(N)NCCC[C@H](N)C(=O)O [L-Arginine],effect of co-administered L-Arginine on the blood pressure response to HBOC,anesthetized rats [3],caused vasodilatation that caused the blood pressure to drop
same,resuscitation outcome with L-Arginine before HBOC,shocked rats [1]; after PEG-20 k,Improvements are seen
same,crystalloid resuscitation outcome with L-Arginine,"[2]; severe hemorrhagic shock, earlier work of the lab (20)",dramatically improved
"COC(=O)[C@@H](N)CCCNC(=N)N[N+](=O)[O-] [L-NAME, L-Nitro Arginine Methyl Ester]",blockade of the L-Arginine effect with HBOC,shocked rats [1],this effect is blocked
same,reversal of the L-Arg blood pressure effect by nitric oxide synthetase inhibitor,anesthetized rats [4],reversal
same,blockade of the L-Arginine effect in crystalloid resuscitation,[2],blocked
fibrinogen,"coagulation outcomes, bleeding times and volumes",shocked rats [5],reduces bleeding
same,"coagulation outcomes, bleeding times and volumes",shocked rats [5]; listed as concentrated fibrinogen,significantly improves coagulation outcomes and decreases uncontrolled bleeding times and volumes
polyethylene glycol [PEG-20 k],coagulopathy on TEG,[6],minor coagulopathy on TEG
same,time when coagulation and platelet function begins to return to baseline levels,[6],4 h

# — patent US20250064724A1, “MODULAR FIELD-STABLE BIO-ARTIFICIAL BLOOD SUBSTITUTE” (VIRGINIA COMMONWEALTH UNIVERSITY, priority 2021, published 2025)
